The source of these data is patent publication US4521538A (Medosan Industrie Biochimiche Riunite S.p.A., priority 1982, dated 1985).

Where a name gives a salt, the structure may show the parent alone. Read-outs that look alike come from different tables or passages of the source.

Data set [1] in a line: Mucolytic activity in vitro, consistency of human expectoration. Conditions: 12 experiments. As to the method:
The experiment was carried out "in vitro" according to the method of R. S. Hirsch (Bull. […] Table IV lists the percentage decrease of the expectoration consistency provoked by the compound of this invention in comparison with dithiothreitol and acetylcysteine which are known mucolytic agents.

A short description of data set [2]: Antiinflammatory activity, carrageenin-induced oedema test. The class given is in vivo, rats. As to the method: This effect was evaluated by means of an experimental model reproducing acute inflammation in rats: for this purpose the carrageenin-induced oedema test was employed following the method described by C. A. Winter (J. Pharmac. Exp. […] Wong, J. F. Gardocki and T. P. Pruss, J. Pharmac. Exp. Ther. 185 (1): 127, 1973). Table I lists the tested compounds, the concentration thereof, routes of administration and relative percentage oedema inhibitions; the data are commented upon at the end of the Tables.

A short description of data set [3]: Antitussive activity (method of Y. Kase). It counts as in vivo, albino male Guinea-pigs. As to the method: The antitussive effect on albino male Guinea-pigs weighing 300 g was evaluated using the method described by Y. Kase (Selected Pharmacological Testing Methods, p. 363, Marcel Dekker Inc., New York, 1968).
A short description of data set [4]: Analgesic activity, phenylquinone-induced writhing test. The class given is in vivo. The protocol:
The inhibiting effect on the abdominal contractions induced by phenyl-p-quinone was calculated by the following formula: [formula]
Table II lists the doses, routes of administration and their efficacy expressed as percentage of protection.
(An intraperitoneal irritant provokes the stretching counted in writhing tests.)

Data set [5] is classed as in vivo, male Wistar rats. The following applies: for mean severity: scale 0 (no lesion) to 5 (perforations). As to the method: Male Wistar rats weighing 180 g were randomized into groups of 10. Three doses of each compound were administered. One group received the vehicle alone (10 ml/kg b.w.). Each dose was given orally for four days consecutively and the rats were sacrificed on the fifth day for necropsy. The ulcerogenic effect was evaluated by the following scale:
(1) each haemorrhagic point at least 1 mm in diameter was scored as 1 lesion,
(2) haemorrhagic points less than 1 mm in diameter were scored in the following manner:
(c) 20 to 29=three lesions
(2) gastric mucosal irritation without haemorrhage: 1
(3) haemorrhagic points less than 1 mm in diameter: 2
(4) haemorrhagic points between 1 and 3 mm in diameter: 3
(5) haemorrhagic points larger than 3 mm in diameter: 4
By means of this scale it was possible to obtain the gastric damage index: [formula]

On to `O[C@H](CS)[C@H](O)CS` (racemic) [Dithiothreitol], for which the “% decrease of expectoration consistency” value in data set [1] (0.1 M (1.5%)) was 90%.

As for `COc1ccc2c(c1)c(CC(=O)O)c(C)n2C(=O)c1ccc(Cl)cc1` [Indomethacin], the Oedema % inhibition in data set [2] (2.5 mg/kg i.p., 2 h) is recorded as 21.0%; in data set [2] (2.5 mg/kg i.p., 4 h), 20.0%; in data set [2] (2.5 mg/kg i.p., 6 h) it was 17.0%; in data set [2] (2.5 mg/kg i.p., 24 h), 2.5%; in data set [2] (2.5 mg/kg per os, 2 h), 18.6%; in data set [2] (2.5 mg/kg per os, 4 h), 20.7%. The Oedema % inhibition in data set [2] (2.5 mg/kg per os, 6 h) is listed as 19.2%; in data set [2] (2.5 mg/kg per os, 24 h), 2.6%; in data set [2] (5 mg/kg i.p., 2 h), 30.0%; in data set [2] (5 mg/kg i.p., 4 h), 29.0%; in data set [2] (5 mg/kg i.p., 6 h), 23.0%; in data set [2] (5 mg/kg i.p., 24 h) it was 3.4%. Further, the Oedema % inhibition in data set [2] (5 mg/kg per os, 2 h) turned out to be 26.3%; in data set [2] (5 mg/kg per os, 4 h), 29.1%; in data set [2] (5 mg/kg per os, 6 h), 28.5%; in data set [2] (5 mg/kg per os, 24 h), 2.7%; in data set [2] (10 mg/kg i.p., 2 h), 49.7%; in data set [2] (10 mg/kg i.p., 4 h), 46.0%. Moreover, the Oedema % inhibition was 48.1% in data set [2] (10 mg/kg i.p., 6 h); 8.0% in data set [2] (10 mg/kg i.p., 24 h); 48.2% in data set [2] (10 mg/kg per os, 2 h); 49.0% in data set [2] (10 mg/kg per os, 4 h); 46.0% in data set [2] (10 mg/kg per os, 6 h); 7.9% in data set [2] (10 mg/kg per os, 24 h).

Turning to `Cc1ccc(C(=O)c2ccc(CC(=O)O)n2C)cc1` [Tolmetin Na.2H2 O, 1-mehtyl-5-p-toluoyl-2-acetic acid sodium salt dihydrate], the “% inhibition, amplitude of coughs” value in data set [3] (50 mg/kg i.p.) is 0%; in data set [3] (50 mg/kg per os), 0%; in data set [3] (75 mg/kg i.p.), 0%; in data set [3] (75 mg/kg per os) it was 7%; in data set [3] (100 mg/kg i.p.), 7%; in data set [3] (100 mg/kg per os), 5%. The “% inhibition, frequency of coughs” value in data set [3] (50 mg/kg i.p.) came to 0%; in data set [3] (50 mg/kg per os) it was 0%; in data set [3] (75 mg/kg i.p.), 10%; in data set [3] (75 mg/kg per os), 0%; in data set [3] (100 mg/kg i.p.) it was 10%; in data set [3] (100 mg/kg per os), 5%. Moreover, the “% protection” value is reported as 16.5% in data set [4] (5 mg/kg i.p.); 15.0% in data set [4] (5 mg/kg per os); 46.2% in data set [4] (10 mg/kg i.p.); 40.6% in data set [4] (10 mg/kg per os); 69.1% in data set [4] (20 mg/kg i.p.); 62.0% in data set [4] (20 mg/kg per os). Moreover, the mean severity in data set [5] (50 mg/kg orally, four days) was found to be 2; in data set [5] (100 mg/kg orally, four days) it was 3.5; in data set [5] (200 mg/kg orally, four days), 4. Further, the “mean No. of lesions” value in data set [5] (100 mg/kg orally, four days) turned out to be 2.5; in data set [5] (200 mg/kg orally, four days) it was 3; in data set [5] (rat, in vivo) it was 2. For the same compound, the Oedema % inhibition in data set [2] (25 mg/kg i.p., 2 h) is given as 28.0%; in data set [2] (25 mg/kg i.p., 4 h), 29.1%; in data set [2] (25 mg/kg i.p., 6 h), 32.1%; in data set [2] (25 mg/kg i.p., 24 h) it was 8.9%; in data set [2] (25 mg/kg per os, 2 h) it was 24.6%; in data set [2] (25 mg/kg per os, 4 h), 26.2%. Moreover, the Oedema % inhibition turned out to be 30.1% in data set [2] (25 mg/kg per os, 6 h); 6.2% in data set [2] (25 mg/kg per os, 24 h); 47.0% in data set [2] (50 mg/kg i.p., 2 h); 49.1% in data set [2] (50 mg/kg i.p., 4 h); 40.0% in data set [2] (50 mg/kg i.p., 6 h); 7.1% in data set [2] (50 mg/kg i.p., 24 h). Also, the Oedema % inhibition in data set [2] (50 mg/kg per os, 2 h) came out at 43.1%; in data set [2] (50 mg/kg per os, 4 h), 46.0%; in data set [2] (50 mg/kg per os, 6 h) it was 41.3%; in data set [2] (50 mg/kg per os, 24 h) it was 9.1%; in data set [2] (100 mg/kg i.p., 2 h) it was 64.1%; in data set [2] (100 mg/kg i.p., 4 h), 65.8%. Further, the Oedema % inhibition in data set [2] (100 mg/kg i.p., 6 h) was 60.2%; in data set [2] (100 mg/kg i.p., 24 h), 11.2%; in data set [2] (100 mg/kg per os, 2 h), 60.8%; in data set [2] (100 mg/kg per os, 4 h), 60.0%; in data set [2] (100 mg/kg per os, 6 h), 64.5%; in data set [2] (100 mg/kg per os, 24 h), 14.6%.

Take `CC(=O)N[C@@H](CS)C(=O)O` [acetylcysteine]: in data set [1] ([…] (20.0%)), the “% decrease of expectoration consistency” value was determined as 81%.
